Measurements as given in the supplement of paper PMC10307832.

How the values were obtained:
Test in all cases: relative viability (nuclei count vs DMSO), 5 days (fraction); higher = more cells survive
Zebularine + Palbociclib = compound: O=c1ncccn1[C@@H]1O[C@H](CO)[C@@H](O)[C@H]1O [Zebularine] + CC(=O)c1c(C)c2cnc(Nc3ccc(N4CCNCC4)cn3)nc2n(C2CCCC2)c1=O [Palbociclib] (partner 0.5 µM)
In short: (§1)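 A single step with final 0.05% Triton X-100, 1% formaldehyde and 1 ug/ml Hoechst fixed the cells and stained nuclei 5 days after treatment. Lung cancer cell lines in 1536-well plates had been treated by pin tool the day after seeding with one drug alone or a fixed anchor-drug dose plus five library-drug doses (not always all listed) in √10 steps, and nuclei were counted on 4× images. Relative viability is the ratio of nuclei in treated wells to nuclei in vehicle wells, taken as the median of duplicate plates.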

BI-D1870 + Linsitinib = compound: CC(C)CCN1c2nc(Nc3cc(F)c(O)c(F)c3)ncc2N(C)C(=O)C1C [BI-D1870] + C[C@]1(O)C[C@@H](c2nc(-c3ccc4ccc(-c5ccccc5)nc4c3)c3c(N)nccn32)C1 [Linsitinib] (partner 1 µM)
In short: as §1

BI-D1870 + Bortezomib = compound: CC(C)CCN1c2nc(Nc3cc(F)c(O)c(F)c3)ncc2N(C)C(=O)C1C [BI-D1870] + CC(C)C[C@H](NC(=O)[C@H](Cc1ccccc1)NC(=O)c1cnccn1)B(O)O [Bortezomib] (partner 0.002 µM)
In short: as §1

Zebularine + Dasatinib = compound: O=c1ncccn1[C@@H]1O[C@H](CO)[C@@H](O)[C@H]1O [Zebularine] + Cc1nc(Nc2ncc(C(=O)Nc3c(C)cccc3Cl)s2)cc(N2CCN(CCO)CC2)n1 [Dasatinib] (partner 0.075 µM)
In short: as §1

Cell Line	relative viability (Zebularine + Palbociclib; first compound 1 µM)	relative viability (Zebularine + Palbociclib; first compound 3.162 µM)	relative viability (Zebularine + Palbociclib; first compound 10 µM)	relative viability (Zebularine + Palbociclib; first compound 31.62 µM)	relative viability (Zebularine + Palbociclib; first compound 100 µM)	relative viability (BI-D1870 + Linsitinib; first compound 0.04 µM)	relative viability (BI-D1870 + Linsitinib; first compound 0.1265 µM)	relative viability (BI-D1870 + Linsitinib; first compound 0.4 µM)	relative viability (BI-D1870 + Linsitinib; first compound 1.265 µM)	relative viability (BI-D1870 + Linsitinib; first compound 4 µM)	relative viability (BI-D1870 + Bortezomib; first compound 0.04 µM)	relative viability (BI-D1870 + Bortezomib; first compound 0.1265 µM)	relative viability (BI-D1870 + Bortezomib; first compound 0.4 µM)	relative viability (BI-D1870 + Bortezomib; first compound 1.265 µM)	relative viability (BI-D1870 + Bortezomib; first compound 4 µM)	relative viability (Zebularine + Dasatinib; first compound 1 µM)	relative viability (Zebularine + Dasatinib; first compound 3.162 µM)	relative viability (Zebularine + Dasatinib; first compound 10 µM)	relative viability (Zebularine + Dasatinib; first compound 31.62 µM)	relative viability (Zebularine + Dasatinib; first compound 100 µM)
HCC-366	0.367	0.387	0.246	0.23	0.108	0.919	0.538	0.53	0.763	0.623	1.1	0.911	1.05	1.1	0.317	0.617	0.667	0.526	0.721	0.218
HCC-827	0.555	0.551	0.424	0.485	0.339	0.992	0.959	0.982	0.977	0.895	1.14	1.1	0.985	1.03	1.12	0.3	0.292	0.249	0.322	0.238
HOP-62	0.496	0.437	0.218	0.158	0.152	1.25	0.997	1.13	1.04	0.91	0.74	0.812	0.809	0.803	0.456	0.729	0.711	0.421	0.462	0.253
IA-LM	–	–	–	–	–	0.824	0.229	0.733	0.983	0.604	1.05	0.842	0.756	0.764	0.204	–	–	–	–	–
LC-2-ad	0.496	0.507	0.322	0.408	0.301	0.874	0.821	0.778	0.722	0.522	1.11	0.921	0.999	1.04	0.953	0.731	0.494	0.226	0.491	0.34
LCLC-97TM1	0.2	0.199	0.0967	0.102	0.111	0.238	0.158	0.19	0.244	0.193	0.833	0.693	0.734	0.957	0.372	0.868	0.844	0.509	0.577	0.315
LK-2	0.874	0.797	0.424	0.28	0.204	0.616	0.518	0.512	0.497	0.457	–	–	–	–	–	0.242	0.336	0.287	0.256	0.228
NCI-H358	0.213	0.128	0.134	0.131	0.132	0.694	0.705	0.812	0.625	0.381	–	–	–	–	–	0.169	0.134	0.194	0.174	0.105
NCI-H522	0.923	0.942	0.926	0.827	0.765	–	–	–	–	–	–	–	–	–	–	0.859	0.886	0.473	0.933	0.938
NCI-H596	–	–	–	–	–	1.13	1.07	1.05	1.17	1.07	1.38	0.86	1.12	1.19	0.943	0.606	0.648	0.461	0.694	0.565
NCI-H1299	–	–	–	–	–	1.04	0.909	0.995	1.02	0.933	1	0.985	1.02	0.959	0.839	–	–	–	–	–
NCI-H1395	0.664	0.659	0.621	0.512	0.518	1.11	0.922	1.14	1.2	0.85	–	–	–	–	–	0.443	0.37	0.408	0.341	0.36
NCI-H1563	–	–	–	–	–	1.4	1.1	1.13	1.07	1.19	0.908	0.81	0.802	0.852	0.784	0.498	0.528	0.527	0.406	0.466
NCI-H1623	–	–	–	–	–	–	–	–	–	–	–	–	–	–	–	0.632	0.47	0.459	0.53	0.386
NCI-H1648	0.316	0.226	0.301	0.25	0.24	–	–	–	–	–	–	–	–	–	–	–	–	–	–	–
NCI-H1650	0.349	0.359	0.311	0.504	0.285	–	–	–	–	–	0.214	0.223	0.209	0.184	0.186	0.384	0.366	0.324	0.342	0.312
NCI-H1703	–	–	–	–	–	–	0.405	0.635	0.772	0.728	0.377	0.315	0.353	0.288	0.21	–	–	–	–	–
NCI-H1793	0.364	0.309	0.214	0.186	0.221	0.824	0.578	0.794	0.84	0.932	–	–	–	–	–	0.479	0.373	–	0.25	0.176
NCI-H1944	0.309	0.353	0.339	0.36	0.329	1.34	1.18	1.07	1.38	1.08	–	–	–	–	–	0.202	0.199	0.221	0.215	0.193
NCI-H2170	0.415	0.351	0.366	0.404	0.283	–	–	–	–	–	–	–	–	–	–	0.658	0.572	0.364	0.559	0.278
NCI-H2342	0.508	0.498	0.5	0.526	0.47	–	–	–	–	–	–	–	–	–	–	0.364	0.337	0.268	0.334	0.341
SK-MES-1	0.346	0.359	0.341	0.328	0.272	1.06	1.05	1.02	0.902	0.705	–	–	–	–	–	0.386	0.423	0.356	0.299	0.166
SW 900	0.503	0.484	–	0.669	0.527	–	–	–	–	–	–	–	–	–	–	0.647	0.498	0.328	0.926	0.484
